The values that follow come from ChEMBL document CHEMBL5576140, “Computational Design of Pore-Forming Peptides with Potent Antimicrobial and Anticancer Activities” (J Med Chem, 2024).

For assay [1], the system named is DU-145. Nature of the assay: Anti-cancer activity against human DU-145 cells incubated for 72 hrs by Cell Titer Glo assay. It is filed as functional, cell-based. Conditions: DU-145, 72 h.
Assay [2] concerns A549. Nature of the assay: Anti-cancer activity against human A549 cells incubated for 72 hrs by Cell Titer Glo assay. The class given is functional, cell-based. To be noted: A549, 72 h.

For the substance H-KKKKLKKILKKLFQFINQLDNQLQDIKQNK-NH2, the IC50 in assay [1] and in assay [2] was 1000 nM throughout.
